According to patent publication US6197798A, “Amino-benzocycloalkane derivatives” (Novartis AG, priority 1999, dated 2001):

How the values were obtained:
[1] = test system: apolipoprotein B (Apo B) secretion, Hep G2 cells; test: inhibition of the cellular secretion of Apo B (Hep G2 cells, ELISA); assay type: cell-based; conditions: Homo sapiens, HepG2, 24 h, secreted Apo B by ELISA
Procedure: The inhibition of the cellular secretion of Apo B is determined as follows:
Hep G2 cells are maintained in T-75 culture flasks (Corning) in Dulbecco's modified Eagles Medium (DMEM; Gibco-BRL) supplemented with 10% fetal calf serum Gibco-BRL) in a humidified atmosphere containing 5% carbon dioxide until they are confluent. For testing compounds, Hep G2 cells from the T-75 maintenance flasks are harvested and seeded in 96-well culture plates (Corning) and are grown for 72 hours (approximately 80% confluent). Test compound is dissolved at 1 mg/ml (w/v;1-5 mM) in dimethyl sulfoxide DMSO; Sigma) as stock solution. Prior to use, the stock solution of compound is diluted to 133 μM with DMSO and diluted further with growth medium (DMEM containing 10% fetal calf serum) to obtain 1 μM of compound in 100 μL of growth medium. 100 μL of growth medium containing the test compound is added to separate wells of a 96-well culture plate containing Hep G2 cells. For testing dose response of compound, a stock solution of test compound in DMSO is made at 665 μM and various dilutions from this solution are made in growth medium to obtain range of concentration of compound from 0.01 μM to 5 μM in 100 μL of growth medium. 100 μL of the growth medium containing different concentrations of test compound is added to separate wells containing Hep G2 cells. Twenty-four hours later, growth medium is collected and assayed by specific ELISA for apolipoprotein B (Apo B). At the same time Hep G2 cells from wells are assayed for protein (BioRad; cat. # 500-0006) and/or cell viability (Promega; CellTiter 96 Aqueous, cat. # G3581). Inhibitors are identified as compounds that decrease Apo B secretion into the medium without decreasing the total cellular protein and/or cell viability. […] Absorbance of each well is read at 405 nm using a Beckman Biomek workstation. […]

[2] = target: T1, rat MTP (microsomal triglyceride transfer protein) (Rattus norvegicus, UniProt D4A1W8); test: inhibition of MTP (triglyceride transfer from donor vesicles to acceptor vesicles); assay type: biochemical; conditions: soluble rat MTP, 37° C., 45 min, radiolabeled triglyceride transfer
T1 construct: homogenate (120 g/210 mL) of rat liver; from tissue; host or cells: rat liver microsomes, deoxycholate-released soluble protein
T1 sequence (D4A1W8 22-896): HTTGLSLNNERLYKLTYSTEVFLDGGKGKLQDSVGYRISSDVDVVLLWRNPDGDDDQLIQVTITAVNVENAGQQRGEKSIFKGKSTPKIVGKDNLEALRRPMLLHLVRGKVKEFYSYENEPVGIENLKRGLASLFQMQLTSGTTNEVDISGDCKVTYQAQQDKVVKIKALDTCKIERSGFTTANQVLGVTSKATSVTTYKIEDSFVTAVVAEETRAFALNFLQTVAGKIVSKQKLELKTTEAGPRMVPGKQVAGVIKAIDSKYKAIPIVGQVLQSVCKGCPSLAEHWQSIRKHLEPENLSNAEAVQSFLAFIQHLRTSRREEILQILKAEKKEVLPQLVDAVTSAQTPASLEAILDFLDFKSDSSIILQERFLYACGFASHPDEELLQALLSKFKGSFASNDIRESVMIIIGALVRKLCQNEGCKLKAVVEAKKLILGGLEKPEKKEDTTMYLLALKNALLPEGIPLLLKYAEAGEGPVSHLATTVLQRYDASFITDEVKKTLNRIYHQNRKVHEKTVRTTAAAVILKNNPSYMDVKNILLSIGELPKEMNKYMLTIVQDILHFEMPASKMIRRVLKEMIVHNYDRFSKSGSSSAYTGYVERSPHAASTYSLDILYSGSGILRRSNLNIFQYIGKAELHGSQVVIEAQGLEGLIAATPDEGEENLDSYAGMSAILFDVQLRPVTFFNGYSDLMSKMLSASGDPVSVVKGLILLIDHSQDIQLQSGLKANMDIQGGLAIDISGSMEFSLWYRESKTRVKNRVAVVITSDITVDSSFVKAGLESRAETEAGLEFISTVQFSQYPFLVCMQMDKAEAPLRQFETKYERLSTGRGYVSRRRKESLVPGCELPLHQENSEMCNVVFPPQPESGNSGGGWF
T1 sequence (P04785 20-509 partner): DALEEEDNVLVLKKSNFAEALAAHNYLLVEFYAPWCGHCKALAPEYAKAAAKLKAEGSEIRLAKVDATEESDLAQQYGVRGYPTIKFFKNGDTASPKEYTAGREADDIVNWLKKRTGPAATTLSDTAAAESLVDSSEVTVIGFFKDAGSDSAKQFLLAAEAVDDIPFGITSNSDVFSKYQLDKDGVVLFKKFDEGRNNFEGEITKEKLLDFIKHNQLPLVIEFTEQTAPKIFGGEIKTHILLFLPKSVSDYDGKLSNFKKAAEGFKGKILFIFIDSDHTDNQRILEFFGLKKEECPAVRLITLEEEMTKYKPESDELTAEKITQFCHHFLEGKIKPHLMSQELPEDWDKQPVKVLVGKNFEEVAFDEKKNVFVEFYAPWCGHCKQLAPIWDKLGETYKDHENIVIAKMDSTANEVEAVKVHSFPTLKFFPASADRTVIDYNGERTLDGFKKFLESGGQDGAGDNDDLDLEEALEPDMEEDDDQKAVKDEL
Procedure: The inhibition of MTP is measured as follows:
Inhibition of the lipid transfer activity of MTP can be quantitated by measuring the inhibition of transfer of radiolabeled triglyceride from donor vesicles to acceptor vesicles in presence of soluble rat MTP. The procedure for preparing MTP is based on the method of Wetterau and Zilversmit (Biochim. Biophys. Acta (1986) 875:610). Briefly rats are decapitated under ether anesthesia. The liver is placed in ice cold sucrose buffer (contains 0.25M sucrose, 50 mM Tris Hcl, 1 mM EDTA, 0.02% sodium azide, pH 7.4) rinsed several times with the sucrose buffer.
All subsequent steps are performed on ice. A 57% homogenate (120 g/210 mL) of rat liver in 0.25 M sucrose buffer is prepared by using a Potter-Elvehjem homogenizer. The homogenate is then centrifuged at 4° C. for 30 min at 13,000×g to remove large cellular organells. The supernatant is then centrifuged for 90 min at 105,000×g to pellet the microsomes. The pellet is resuspended in 10 mM Tris-HCl buffer pH 8.6. and centrifuged for 90 min at 105,000×g. The washed pellet is then resuspended in 1 mM Tris buffer (pH 8.6) and centrifuged for 2 hrs. […] The protein content is measured using the Sigma Lowry micro total protein method and reagents (Sigma Cat. # 690A). […]
MTP activity is measured using a MTP transfer assay. […]

[3] = in vivo triglyceride lowering effect; conditions: 10 mg/kg p.o.
Description: The in vivo serum triglyceride lowering effect of the compounds of the invention can be determined by measuring their effect on triglyceride levels in mice, rats or dogs according to methodology well known in the art, e.g., in a model of pre-established hypertriglyceridemia in fructose fed rats or in normolipidemic rats.

[4] = in vivo cholesterol lowering effect; conditions: 10 mg/kg p.o.
Description: The in vivo serum cholesterol lowering effect of the compounds of the invention can be determined by measuring their effect on cholesterol levels in mice, rats or dogs according to methodology well known in the art, e.g., in normolipidemic rats.

SMILES: CS(=O)(=O)N[C@@H]1Cc2ccc(NC(=O)c3cc(F)ccc3-c3ccc(C(F)(F)F)cc3)cc2C1 [13(al)]
- IC50 [1]: ~3 nM

SMILES: COC(=O)N[C@@H]1Cc2ccc(NC(=O)c3cccc(C)c3-c3ccc(C(F)(F)F)cc3)cc2C1 [13(i), (R)-6-methyl-4'-trifluoromethylbiphenyl-2-carboxylic acid (2-methoxycarbonylaminoindan-5-yl)-amide]
- IC50 [2]: ~70 nM
- lowers plasma triglycerides [3]: lowers both plasma triglycerides and cholesterol
- lowers plasma cholesterol [4]: lowers both plasma triglycerides and cholesterol
- IC50 [1]: ~0.7 nM

SMILES: Cc1cccc(C(=O)Nc2ccc3c(c2)C[C@@H](NS(C)(=O)=O)C3)c1-c1ccc(C(F)(F)F)cc1 [Example 13b]
- IC50 [2]: ~60 nM
- IC50 [1]: ~1.8 nM
